We go through 14 compounds from US20070238617A1, “Diamino-1,3,5-triazines N-substituted with bicyclic radicals, process for their preparation, compositions thereof, and their use as herbicides and plant growth regulators” (Bayer CropScience AG, priority 2006, published 2007).

Series [1] relates to harmful plants such as Stellaria media, Lolium multiforum, Amaranthus retroflexus, Sinapis alba, Avena sativa and Setaria viridis. Nature of the series: Pre-emergence effect on weeds (greenhouse pot test). The series is classed as in vivo. The note with it: application rate of 0.5 kg or less of active ingredient per hectare; applied to soil cover; scored visually after 3 to 4 weeks vs untreated controls. The source says:
Seeds or rhizome pieces of monocotyledonous and dicotyledonous weed plants were placed in sandy loam in plastic pots and covered with soil. The compounds according to the invention, which were formulated in the form of wettable powders or emulsion concentrates, were then applied to the surface of the soil cover as aqueous suspension or emulsion at various dosages with an application rate of 600 to 800 l of water per ha (converted).

Series [2] concerns harmful plants such as Sinapis alba, Echinochloa crus-galli, Lolium multiflorum, Stellaria media, Cyperus iria, Amaranthus retroflexus, Setaria viridis, Avena …. As to the kind of experiment: Post-emergence effect on weeds (greenhouse pot test). The series is classed as in vivo. The note with it: application rate of 2 kg or less of active ingredient per hectare; sprayed in the three-leaf stage; scored visually after approx. 3 to 4 weeks vs untreated controls. The protocol: Seeds or rhizome pieces of monocotyledonous and dicotyledonous weeds were placed in sandy loam in plastic pots, covered with soil and grown in the greenhouse under good growth conditions. Three weeks after sowing, the test plants were treated in the three-leaf stage. Various dosages of the compounds according to the invention, which were formulated as wettable powders or emulsion concentrates, were sprayed to the green plant parts at an application rate of 600 to 800 l of water per ha (converted). After the test plants have been left to stand in the greenhouse for approx. 3 to 4 weeks under optimal growth conditions, the effect of the preparations was scored visually by comparison with untreated controls. Compound nos.

Series [3] deals with plantation crops such as oil palm, coconut palm, India-rubber tree, citrus, pineapples, cotton, coffee, cocoa and vines. As to the kind of experiment: Weed control in plantation crops (field trials, crop tolerance). As to conditions: natural weed infestation, various dosages, even at high rates of active substance. The series is classed as in vivo. The protocol:
In further field trials plantation crops were grown under conditions of natural weed infestation and sprayed with various dosages of the substances of formula (I) according to the invention.

For the compound `Cc1cc(C)c2c(c1)C(Nc1nc(N)nc(C(F)F)n1)CCC2` (racemic) [Compound 1.5], the “pre-emergence control of harmful plants” value in series [1] is “very good pre-emergence control”. Also, the “herbicidal post-emergence activity against harmful plants” value (“herbicidal post-emergence activity” for short) in series [2] is “very good herbicidal post-emergence activity”. Moreover, in series [3], the “damage to plantation crops (visual assessment)” value (“damage to plantation crops” for short) is “unharmed”.

Take `Cc1cccc2c1OCCC2Nc1nc(N)nc(C(F)F)n1` (racemic) [Compound 1.205]: the “pre-emergence control of harmful plants” value in series [1] was “very good pre-emergence control”. For the same compound, in series [2], the “herbicidal post-emergence activity” value was “very good herbicidal post-emergence activity”. Besides, in series [3], the “damage to plantation crops” value is “unharmed”.

With `Cc1ccc2c(c1)[C@H](Nc1nc(N)nc(C(F)F)n1)CC2` [Compound 2.1], the “pre-emergence control of harmful plants” value in series [1] was “very good pre-emergence control”. In addition, the “herbicidal post-emergence activity” value in series [2] is listed as “very good herbicidal post-emergence activity”. In addition, the “damage to plantation crops” value in series [3] is on record as “unharmed”.

In the case of `Cc1ccc2c(c1)[C@H](Nc1nc(N)nc(C(F)F)n1)CCC2` [Compound 2.2], the “pre-emergence control of harmful plants” value in series [1] is on record as “very good pre-emergence control”. For the same compound, in series [2], the “herbicidal post-emergence activity” value was “very good herbicidal post-emergence activity”. Further, in series [3], the “damage to plantation crops” value is given as “unharmed”.

Consider `Cc1ccc2c(c1)[C@H](Nc1nc(N)nc(C(F)F)n1)CCO2` [Compound 2.3], for which, in series [1], the “pre-emergence control of harmful plants” value was “very good pre-emergence control”. For the same compound, in series [2], the “herbicidal post-emergence activity” value is given as “very good herbicidal post-emergence activity”. In series [3], the “damage to plantation crops” value is on record as “unharmed”.

On to `Cc1cc(C)c2c(c1)[C@H](Nc1nc(N)nc(C(F)F)n1)CCC2` [Compound 2.5], for which the “pre-emergence control of harmful plants” value in series [1] is “very good pre-emergence control”. Further, in series [2], the “herbicidal post-emergence activity” value is on record as “very good herbicidal post-emergence activity”. Further, the “damage to plantation crops” value in series [3] is “unharmed”.

In the case of `Nc1nc(N[C@@H]2CCOc3c(F)cccc32)nc(C(F)F)n1` [Compound 2.206, 6-(Difluoromethyl)-N-[(4R)-8-fluoro-3,4-dihydro-2H-chromen-4-yl]-1,3,5-triazine-2,4-diamine], the “pre-emergence control of harmful plants” value in series [1] is given as “very good pre-emergence control”. In addition, the “herbicidal post-emergence activity” value in series [2] is “very good herbicidal post-emergence activity”. For the same compound, the “damage to plantation crops” value in series [3] is “unharmed”.

One may read the melting point as the temperature of the solid-liquid transition. Compound `Cc1ccc2c(c1)[C@H](Nc1nc(N)nc(C(F)F)n1)[C@@H](C)C2` [Compound 3.1, 6-(difluoromethyl)-N-[(1R,2S)-2,6-dimethyl-2,3-dihydro-1H-inden-1-yl]-1,3,5-triazine-2,4-diamine] gave a melting point of 132 to 134 °C. Moreover, in series [1], the “pre-emergence control of harmful plants” value is recorded as “very good pre-emergence control”. The “herbicidal post-emergence activity” value in series [2] is “very good herbicidal post-emergence activity”. Further, in series [3], the “damage to plantation crops” value is given as “unharmed”.

Turning to `CC[C@H]1Cc2ccc(C)cc2[C@@H]1Nc1nc(N)nc(C(F)F)n1` [Compound 3.31], the “pre-emergence control of harmful plants” value in series [1] is recorded as “very good pre-emergence control”. In addition, the “herbicidal post-emergence activity” value in series [2] is recorded as “very good herbicidal post-emergence activity”. Further, in series [3], the “damage to plantation crops” value is given as “unharmed”.

With `C[C@H]1Cc2ccc(Br)cc2[C@@H]1Nc1nc(N)nc(C(F)F)n1` [Compound 3.82], the “pre-emergence control of harmful plants” value in series [1] is “very good pre-emergence control”. Besides, the “herbicidal post-emergence activity” value in series [2] is “very good herbicidal post-emergence activity”. The “damage to plantation crops” value in series [3] was “unharmed”.

For the compound `CC(=O)Nc1nc(N[C@H]2c3cc(C)ccc3C[C@@H]2C)nc(C(F)F)n1` [Compound 3.106], in series [1], the “pre-emergence control of harmful plants” value was “very good pre-emergence control”. Also, in series [2], the “herbicidal post-emergence activity” value is recorded as “very good herbicidal post-emergence activity”. In addition, the “damage to plantation crops” value in series [3] was “unharmed”.

In the case of `CCC(=O)Nc1nc(N[C@H]2c3cc(C)ccc3C[C@@H]2C)nc(C(F)F)n1` [Compound 3.109, N-(4-(difluoromethyl)-6-{[(1R,2S)-2,6-dimethyl-2,3-dihydro-1H-inden-1-yl]-amino}-1,3,5-triazin-2-yl)propanamide], in series [1], the “pre-emergence control of harmful plants” value was “very good pre-emergence control”. Further, the “herbicidal post-emergence activity” value in series [2] is given as “very good herbicidal post-emergence activity”. For the same compound, the “damage to plantation crops” value in series [3] is listed as “unharmed”.

For the compound `Cc1ccc2c(c1)[C@H](Nc1nc(NC(=O)C(C)(C)C)nc(C(F)F)n1)[C@@H](C)C2` [Compound 3.112], in series [1], the “pre-emergence control of harmful plants” value is listed as “very good pre-emergence control”. In addition, in series [2], the “herbicidal post-emergence activity” value is reported as “very good herbicidal post-emergence activity”. For the same compound, the “damage to plantation crops” value in series [3] is listed as “unharmed”.

The compound `Cc1ccc2c(c1)[C@H](Nc1nc(NC=O)nc(C(F)F)n1)[C@@H](C)C2` [Compound 3.118, N-[4-(difluoromethyl)-6-{[(1R,2S)-2,6-dimethyl-2,3-dihydro-1H-inden-1-yl]amino}-1,3,5-triazin-2-yl]-formamide] came in with a melting point of 66 °C.
